Results on 27 compounds are retold here after patent US10028934B2, “Substituted indazole derivatives active as kinase inhibitiors” (NERVIANO MEDICAL SCIENCES S.R.L., priority 2011, dated 2018).

Counter-ions that a name gives are not always drawn. Bounds are passed on as bounds.

Assay [1] concerns MOLM-13 cells. As to the kind of experiment: In vitro cell proliferation assay, MOLM-13 (CellTiter-Glo). The format is cell-based. The settings on record: human acute leukemia cells bearing FLT3-ITD mutation, 72 h. On the procedure: (§1) The human acute leukemia MOLM-13 AND MV-4-11 cells, bearing a FLT3-ITD mutation, were seeded (5000 cells/well) in white 384 well-plates in complete medium (RPMI 1640 plus 10% Fetal bovine serum) and treated with compounds dissolved in 0.1% DMSO, 24 h after seeding. The cells were incubated at 37° C. and 5% CO2 and after 72 h the plates were processed using CellTiter-Glo assay (Promega) following the manufacturer's instruction.
(§2) CellTiter-Glo is a homogenous method based on the quantification of the ATP present, an indicator of metabolitically active cells. ATP was quantified using a system based on luciferase and D-luciferin resultant into light generation. The luminescent signal was proportional to the number of cells present in culture. Briefly, 25 microL/well reagent solution were added to each well and, after 5 minutes shaking, microplates were read by Envision (PerkinElmer) luminometer. Inhibitory activity was evaluated comparing treated versus control data using Symyx Assay Explorer (Symyx Technologies Inc.) program. IC50 was calculated using sigmoidal interpolation curve.

Assay [2] relates to MV-4-11 cells. As to the kind of experiment: In vitro cell proliferation assay, MV-4-11 (CellTiter-Glo). Format: cell-based. Particulars: MV4-11; human acute leukemia cells bearing FLT3-ITD mutation, 72 h. On the procedure:
as §1, §2
For orientation: Cellular ATP, detected with luciferase, serves as a proxy for viable cell number.

Take `CN(C)CCN(C)c1ccc(C(=O)Nc2n[nH]c3cc(OCCOCc4ccccc4)ccc23)cc1` [Cpd. 16, N-[6-(2-Benzyloxy-ethoxy)-1H-indazol-3-yl]-4-[(2-dimethylamino-ethyl)-methyl-amino]-benzamide]: the IC50 in assay [1] and in assay [2] was under 50 nM each time.

`CN1CCN(c2ccc(C(=O)Nc3n[nH]c4cc(OCCOCc5ccccc5)ccc34)c(N3CCN(C)CC3)c2)CC1` [Cpd. 43, N-[6-(2-Benzyloxy-ethoxy)-1H-indazol-3-yl]-2,4-bis-(4-methyl-piperazin-1-yl)-benzamide]: the IC50 (usually the point on the concentration scale where inhibition reaches its midpoint) in assay [1] is 240 nM; in assay [2], 118 nM.

In the case of `CN1CCC(Nc2ccc(C(=O)Nc3n[nH]c4cc(OCCOCc5ccccc5)ccc34)cc2)CC1` [Cpd. 19, N-[6-(2-Benzyloxy-ethoxy)-1H-indazol-3-yl]-4-(1-methyl-piperidin-4-ylamino)-benzamide], the IC50 in assay [1] and in assay [2] was under 50 nM throughout.

For `CN1CCN(c2ccc(C(=O)Nc3n[nH]c4cc(Oc5ccc(OCc6ccccc6)cc5)ccc34)cc2)CC1` [Cpd. 4, N-[6-(4-Benzyloxy-phenoxy)-1H-indazol-3-yl]-4-(4-methyl-piperazin-1-yl)-benzamide], the IC50 in assay [1] is 92 nM; in assay [2], under 50 nM.

For `CN1CCN(c2ccc(C(=O)Nc3n[nH]c4cc(Oc5ccccc5)ccc34)cc2)CC1` [Cpd. 2, 4-(4-Methyl-piperazin-1-yl)-N-(6-phenoxy-1H-indazol-3-yl)-benzamide], the results for the IC50 in assay [1] and in assay [2] were 1160 nM and 1480 nM, respectively.

On to `CN1CCN(c2ccc(C(=O)Nc3n[nH]c4cc(OCCOCc5ccccc5)ccc34)c(F)c2)CC1` [Cpd. 38, N-[6-(2-Benzyloxy-ethoxy)-1H-indazol-3-yl]-2-fluoro-4-(4-methyl-piperazin-1-yl)-benzamide], for which the IC50 in assay [1] and in assay [2] was under 50 nM in each case.

With `CN(C)C1CCN(c2ccc(C(=O)Nc3n[nH]c4cc(OCCOCc5ccccc5)ccc34)cc2)CC1` [Cpd. 15, N-[6-(2-Benzyloxy-ethoxy)-1H-indazol-3-yl]-4-(4-dimethylamino-piperidin-1-yl)-benzamide], the IC50 in assay [1] and in assay [2] was under 50 nM each time.

As for `CN1CCN(c2ccc(C(=O)Nc3n[nH]c4cc(OCCOCc5cccc(C(F)(F)F)c5)ccc34)cc2)CC1` [Cpd. 34, 4-(4-Methyl-piperazin-1-yl)-N-{6-[2-(3-trifluoromethyl-benzyloxy)-ethoxy]-1H-indazol-3-yl}-benzamide], the IC50 in assay [1] and in assay [2] was under 50 nM in each case.

Take `O=C(Nc1n[nH]c2cc(OCCOCc3ccccc3)ccc12)c1ccc(N2CC(N3CCCC3)C2)cc1` [Cpd. 28, N-[6-(2-Benzyloxy-ethoxy)-1H-indazol-3-yl]-4-(3-pyrrolidin-1-yl-azetidin-1-yl)-benzamide]: the IC50 in assay [1] and in assay [2] was under 50 nM throughout.

Take `O=C(Nc1n[nH]c2cc(OCCOCc3ccccc3)ccc12)c1ccc(NCCN2CCOCC2)cc1` [Cpd. 25, N-[6-(2-Benzyloxy-ethoxy)-1H-indazol-3-yl]-4-(2-morpholin-4-yl-ethylamino)-benzamide hydrochloride]: the IC50 in assay [1] and in assay [2] was under 50 nM in each case.

Take `CN1CCN(c2ccc(C(=O)Nc3n[nH]c4cc(OC/C=C/c5ccccc5)ccc34)cc2)CC1` [Cpd. 39, 4-(4-Methyl-piperazin-1-yl)-N-[6-((E)-3-phenyl-allyloxy)-1H-indazol-3-yl]-benzamide]: the IC50 in assay [1] stood at 81 nM; in assay [2], 50 nM.

For the compound `CN1CCN(c2ccc(C(=O)Nc3n[nH]c4cc(Oc5cccc(F)c5)ccc34)cc2)CC1` [Cpd. 3, N-[6-(3-Fluoro-phenoxy)-1H-indazol-3-yl]-4-(4-methyl-piperazin-1-yl)-benzamide], the results for the IC50 in assay [1] and in assay [2] were 990 nM and 987 nM, respectively.

`CN1CCN(c2ccc(C(=O)Nc3n[nH]c4cc(OCC#Cc5ccccc5)ccc34)cc2)CC1` [Cpd. 7, 4-(4-Methyl-piperazin-1-yl)-N-[6-(3-phenyl-prop-2-ynyloxy)-1H-indazol-3-yl]-benzamide]: the IC50 in assay [1] amounted to 240 nM; in assay [2] it was 110 nM.

Turning to `CN1CCN(c2ccc(C(=O)Nc3n[nH]c4cc(OCCOCc5ccccc5)ccc34)cc2)CC1` [Cpd. 11, N-[6-(2-Benzyloxy-ethoxy)-1H-indazol-3-yl]-4-(4-methyl-piperazin-1-yl)-benzamide], the IC50 in assay [1] and in assay [2] was under 50 nM each time.

In the case of `CN1CCN(c2ccc(C(=O)Nc3n[nH]c4cc(Oc5ccc(Oc6ccccc6)cc5)ccc34)cc2)CC1` [Cpd. 8, 4-(4-Methyl-piperazin-1-yl)-N-[6-(4-phenoxy-phenoxy)-1H-indazol-3-yl]-benzamide], the IC50 in assay [1] amounted to 1980 nM; in assay [2], 2750 nM.

As for `CN1CCN(c2ccc(C(=O)Nc3n[nH]c4cc(Oc5cccc(OCc6ccccc6)c5)ccc34)cc2)CC1` [Cpd. 9, N-[6-(3-Benzyloxy-phenoxy)-1H-indazol-3-yl]-4-(4-methyl-piperazin-1-yl)-benzamide], the IC50 in assay [1] came out at 245 nM; in assay [2] it was 101 nM.

For `C[N+]1([O-])CCN(c2ccc(C(=O)Nc3n[nH]c4cc(OCCOCc5ccccc5)ccc34)cc2)CC1` [Cpd. 14, N-[6-(2-Benzyloxy-ethoxy)-1H-indazol-3-yl]-4-(4-methyl-4-oxy-piperazin-1-yl)-benzamide], the IC50 in assay [1] and in assay [2] was under 50 nM in each case.

Consider `CN(C)CCCN(C)c1ccc(C(=O)Nc2n[nH]c3cc(OCCOCc4ccccc4)ccc23)cc1` [Cpd. 17, N-[6-(2-Benzyloxy-ethoxy)-1H-indazol-3-yl]-4-[(3-dimethylamino-propyl)-methyl-amino]-benzamide], for which the IC50 in assay [1] is 87 nM; in assay [2] it was under 50 nM.

Take `CN1CCN(c2ccc(C(=O)Nc3n[nH]c4cc(OCc5ccccc5)ccc34)cc2)CC1` [Cpd. 1, N-(6-Benzyloxy-1H-indazol-3-yl)-4-(4-methyl-piperazin-1-yl)-benzamide]: the IC50 in assay [1] was determined as 789 nM; in assay [2], 683 nM.

`CN1CCN(c2ccc(C(=O)Nc3n[nH]c4cc(OCCOc5ccccc5)ccc34)cc2)CC1` [Cpd. 10, 4-(4-Methyl-piperazin-1-yl)-N-[6-(2-phenoxy-ethoxy)-1H-indazol-3-yl]-benzamide]: the figures for the IC50 in assay [1] and in assay [2] were 139 nM and 118 nM, respectively.

Turning to `CN1CCN(c2ccc(C(=O)Nc3n[nH]c4cc(OCc5cccc(Oc6ccccc6)c5)ccc34)cc2)CC1` [Cpd. 5, 4-(4-Methyl-piperazin-1-yl)-N-[6-(3-phenoxy-benzyloxy)-1H-indazol-3-yl]-benzamide], the IC50 in assay [1] was determined as 557 nM; in assay [2] it was 513 nM.

Turning to `CN1CCN(c2ccc(C(=O)Nc3n[nH]c4cc(OC5CCN(Cc6ccccc6)CC5)ccc34)cc2)CC1` [Cpd. 6, N-[6-(1-Benzyl-piperidin-4-yloxy)-1H-indazol-3-yl]-4-(4-methyl-piperazin-1-yl)-benzamide], the IC50 in assay [1] is 673 nM; in assay [2] it was 163 nM.

Turning to `CN1CCC(CNc2ccc(C(=O)Nc3n[nH]c4cc(OCCOCc5ccccc5)ccc34)cc2)CC1` [Cpd. 27, N-[6-(2-Benzyloxy-ethoxy)-1H-indazol-3-yl]-4-[(1-methyl-piperidin-4-ylmethyl)-amino]-benzamide], the concentration for half-maximal inhibition (IC50) in assay [1] and in assay [2] was under 50 nM in each case.

Regarding `COc1ccc(COCCOc2ccc3c(NC(=O)c4ccc(N5CCN(C)CC5)cc4)n[nH]c3c2)cc1` [Cpd. 40, N-{6-[2-(4-Methoxy-benzyloxy)-ethoxy]-1H-indazol-3-yl}-4-(4-methyl-piperazin-1-yl)-benzamide], the IC50 in assay [1] and in assay [2] was under 50 nM throughout.

As to `CN1CCC(Oc2ccc(C(=O)Nc3n[nH]c4cc(OCCOCc5ccccc5)ccc34)cc2)CC1` [Cpd. 22, N-[6-(2-Benzyloxy-ethoxy)-1H-indazol-3-yl]-4-(1-methyl-piperidin-4-yloxy)-benzamide], the IC50 in assay [1] is 65 nM; in assay [2], under 50 nM.

`CN(C)Cc1ccc(C(=O)Nc2n[nH]c3cc(OCCOCc4ccccc4)ccc23)cc1` [Cpd. 21, N-[6-(2-Benzyloxy-ethoxy)-1H-indazol-3-yl]-4-dimethylaminomethyl-benzamide] yielded an IC50 in assay [1] of 68 nM.

For `CN1CCN(c2cccc(C(=O)Nc3n[nH]c4cc(OCCOCc5ccccc5)ccc34)c2)CC1` [Cpd. 29, N-[6-(2-Benzyloxy-ethoxy)-1H-indazol-3-yl]-3-(4-methyl-piperazin-1-yl)-benzamide hydrochloride], the IC50 in assay [1] and in assay [2] was under 50 nM in each case.
